What was measured:
[1] = Liver S9 enzyme assay of conversion to BVU; format: in vitro ADME
Protocol: Human and murine S9 liver fractions are purchased from Thermo Fisher Scientific (HMS9L and MSMCPL, respectively). Enzyme assays are performed for the deglycosylation of arabinosyluracil derivatives. In brief, assays are performed at 37° C. Reaction volumes are 150 μL with liver S9 fractions at 5 μg/μL and BRV or SRV at 100 μM in 10 mM phosphate buffer (pH 7.4). Reactions are initiated by addition of drugs to pre-warmed reaction mixture. 10 μL samples are collected and quenched in 10 μL acetonitrile on ice at 0, 5, 10, 15, 20, 30, 45, 60, 90, 120, 180, 270, and 360 min after initiation. Substrates and reaction product are extracted and quantified by LC-MS as described below.

BT4554 = assay: B. thetaiotaomicron loss-of-function screen, bt4554 deletion and complementation; format: in vitro ADME, Bacteroides thetaiotaomicron; conditions: BT4554 dependence
From the text: Two independent strategies were developed to identify the microbiome-encoded DMEs responsible for these chemical transformations. For members of the Bacteroides (the most prominent genus in the human gut microbiome in the experiments), Proteobacteria, and other genetically tractable species, Insertion Sequencing (INSeq) is used to make mapped, arrayed transposon mutant libraries as described in Goodman 2009 and Goodman 2011. From these libraries, a representative set of mutants was identified that collectively include disruptions in most non-essential genes. Each mutant was incubated with the pool of drugs metabolized by the parent species. Genes required for drug metabolism by LC-MS were identified as above.
1,352 B. thetaiotaomicron mutants were selected from an arrayed library as described in Goodman 2009 that disrupt ˜70% of its non-essential genes. Each mutant was incubated with a pool of 30 drugs metabolized by this organism. Drug levels were measured over time as above. […] FIGS. 10A-C show two examples: one of these is brivudine, an antiviral whose primary metabolite (bromovinyluracil; BVU) is dangerously toxic for patients taking 5-fluorouracil, a principal therapy for colorectal cancer. With reference to FIGS. 10A-C, transposon mutants representing disruptions in 70% of B. thetaiotaomicron (Bt) non-essential genes were screened for metabolism of 30 drugs targeted by the parent strain.
The contribution of microbial drug metabolism to serum drug and metabolite exposure was directly quantified by specifically modulating this activity in otherwise identical mice. To this end, the capacity of ten individual bacterial species was first determined, representing five major phyla that dominate the mammalian gut microbiota, for their capacity to convert BRV to BVU as illustrated in FIG. 14A. […]
Frozen stocks are re-suspended in 4 mL pre-reduced GMM and incubated anaerobically at 37° C. for 14 h. […] Substrates and reaction product are extracted and quantified by LC-MS as described below. […]

[2] = patients taking 5-fluorouracil; before withdrawal from the market; cited from earlier work
[3] = tested on: human gut microbiome samples; assay: Combinatorial drug pools incubated with human gut microbiome samples, LC-qTOF MS; format: in vitro ADME; conditions: for metabolism by the human gut microbiome (log2 fold change in amount of drug): 11 individuals randomly selected from the 60 studied, time span of 24 hours
From the text: Beginning with the 1,760 FDA-approved drugs in the MicroSource Pharmakon library, a single UHPLC-qTOF MS method was optimized (C18 column; methanol:water gradient; positive ionization mode) that maximizes the number of detected drugs while minimizing run time. […] These drugs, whose molecular weights vary from ˜155 to ˜800 Da, span a wide range of clinical indications. Many have limited or highly variable bioavailability. Other criteria (specific chemical groups, bioavailability, etc) may be used to select other reference drugs, or drugs may be selected from pre-clinical compound libraries. A computational simulation was performed to determine the number of inputs (drugs) that can be represented in increasing numbers of pools, as a function of changing parameters for replicates and overlap. One such pooling scheme assigns each of 271 drugs to a subset of 21 pools, such that each drug is placed in 4 pools but shares a pool with each other drug at most twice as shown in FIG. 5B. FIG. 5B illustrates combinatorial pooling of 271 drugs indicated in black circles into 21 pools (A-U). Pools V-X are no-drug controls. Other pooling schemes may alter the number of drugs, the number of pools, the number of pools each drug is placed in, or the overlap between the pooling patterns of each drug. […] Each of these pools was incubated with each of 60 human gut microbiome samples and 76 defined bacterial species/strains. Samples were collected over time. Liquid chromatography-coupled quadrupole time-of-flight mass spectrometry (MS) described above was used to quantify drug levels by targeted analysis. For each candidate drug-microbiome interaction, 4 pools provide quadruplicate replication for each drug in 4 distinct contexts of other drugs. The other pools serve as negative controls. In this manner, over 16,000 time-series profiles (271 drugs by 60 communities) were collected, each in quadruplicate, from only 21 drug pools.

[4] = tested on: 76 defined human gut commensals; format: in vitro ADME
Protocol: Using the combinatorial pooling method described above, each of the 21 drug pools was incubated, plus 3 no-drug control pools, with 76 defined human gut commensals from phyla shown in FIG. 8 grown in pure culture. Over 20,000 time-series profiles were collected, each in quadruplicate, of these specific drug-microbe interactions.

## O=c1[nH]c(=O)n([C@@H]2O[C@H](CO)[C@@H](O)[C@@H]2O)cc1/C=C/Br [SRV, sorivudine]
[1]; human S9 liver fractions
  conversion of SRV to BVU: slowly converted
[1]; murine S9 liver fractions
  conversion of SRV to BVU: slowly converted
BT4554
  conversion of SRV to BVU by B. thetaiotaomicron: slowly converts SRV to BVU in a BT4554-dependent manner
[2]
  patients killed by BVU from the drug: 18 patients

## CC(=O)OCC(CCn1cnc2cnc(N)nc21)COC(C)=O [Famcyclovir]
[3]
  metabolism by the human gut microbiome (log2 fold change in amount of drug): metabolized by the human gut microbiome

## CC(=O)OCC(=O)[C@@]12N=C(C)O[C@@H]1C[C@H]1[C@@H]3CCC4=CC(=O)C=C[C@]4(C)[C@H]3[C@@H](O)C[C@@]12C [deflazacort]
[4]
  metabolism by individual species: most of the fast metabolizers of this drug are Bacteroides

## COc1ccc(/C=C/C(=O)Nc2ccccc2C(=O)O)cc1OC [tranilast]
[3]
  interpersonal variability of metabolism by gut microbiome: one individual that metabolized the drug to a much greater extent than the others
  metabolism by the human gut microbiome (log2 fold change in amount of drug): metabolized by the human gut microbiome

## Cc1nc2n(c(=O)c1CCN1CCC(c3noc4cc(F)ccc34)CC1)CCCC2 [risperidone]
[3]
  metabolism by the human gut microbiome (log2 fold change in amount of drug): metabolized by the human gut microbiome

Reference: patent US20210183467A1, “SYSTEM AND METHOD FOR USING MICROBIOME TO DE-RISK DRUG DEVELOPMENT” (YALE UNIVERSITY, priority 2018, published 2021)
